These results are taken from patent US5491135A (priority 1993, dated 1996).

For one series, the system named is flaviviruses. Kind of series: Antiviral test of 2-dGlc. Format: cell-based. Conditions: alone.
In another series the test system is simian varicella virus. Kind of series: Simian varicella virus infection in African green monkeys. Particulars: for Viremia, Mean PFU: mg/kg/d i.v. It counts as in vivo, African green monkey. Here is the method: Fifteen African green monkeys were weighed and bled for clinical chemistry hematology baselines. […] Each of the 15 monkeys were infected with simian varicella virus by intratracheal inoculation of 3.7×10^4 plaque forming units (PFU) of simian varicella virus. […] Control monkeys, service as infection controls, received twice daily intravenous injections of phosphate buffered saline administered at 1.0 ml/kg of body weight. A second group of three monkeys received PALA at 50 mg/kg/day given by intravenous bolus injection into the saphenous vein. A third group was given a lower dose of PALA at 20 mg/kg/day administered in a similar manner. Acyclovir treatment was administered at a subeffective dose of 10 mg/kg/day also given as intravenous bolus injection into the saphenous vein. A fifth group of three monkeys received a combined treatment of PALA at 20 mg/kg/day and acyclovir at 10 mg/kg/day. The drugs were injected into opposite veins at each time of treatment.
Drug solutions were prepared daily prior to treatment. Treatment was begun 24 hours after virus inoculation. PALA was provided as a solution in vials containing 5 ml at 100 mg/ml. The contents of three vials were pooled and seven ml of the pooled drug diluted to 28 ml to give 25 mg/ml. Five ml of this solution was diluted to […] to give 10 mg/ml. Drug was administered twice daily resulting in total daily doses of 50 or 20 mg/kg/day.
Acyclovir received as a gift from Burroughs Wellcome was weighed out as a 200 mg quantity. This was diluted with 5 ml of PBS and pH adjusted to 11.0 with 1N NaOH to effect solution. This was subsequently diluted to 40 ml to give a solution of 5 mg/ml and sterilized by filtration. Again, 1 ml per kg of body weight was administered by intravenous injection twice daily resulting in a dose of 10 mg/kg/day.
The clinical course of simian varicella infection was followed by collection of 2 ml of blood in heparin on day 2, 5, 7, 9 and 11 post-inoculation. The lymphocytes in the 2 ml specimen were separated on ficol-hypaque gradients, washed twice in RPMI-1640 medium and suspended in 10 ml of this medium. The 10 ml volume was divided between two 25 cm^2 tissue culture flasks seeded 24 hours earlier with Vero cells. After 5-7 days incubation, the culture fluids were discarded from the flasks and the cell monolayer fixed with methanol and stained with methylene blue-basic fuchsin. When dried the number of plaques in each flask were counted and the mean number of plaques between the two paired flasks were determined and expressed as a quantitation of viremia per ml of blood.
Rash was evaluated daily using a subjective scoring of severity from ± to 4+. A ± score indicates less than 10 vesicles seen on the skin of the monkey while 4+ indicates numerous vesicles covering the majority of the body surface. General clinical condition was assessed daily and anorexia noted by counting the number of food biscuits consumed daily. Monkeys dying during the course of the experiment were necropsied and simian varicella was determined as the cause of death based on the typical pathology. Baseline hematology and clinical chemistry tests were performed at three days before virus inoculation and again on day 0, immediately before virus inoculation. Following inoculation of simian varicella virus blood was taken for hematology and clinical chemistry tests at 3, 7, 9 and 11 days.
At 14 and 21 days after virus inoculation, blood was taken and the serum separated for quantitation of antibody. Antibody titers were obtained in a serum neutralization test employing a plaque reduction assay. The antibody titer expressed is the dilution of serum resulting in an 80 percent reduction in the number of plaques from that number occurring in control cultures without added serum.

Another series deals with herpesvirus. Conditions: cited from earlier work.
Series [1] relates to respiratory syncytial virus (RSV). As to the kind of experiment: RSV infection in cotton rats, lung titre. It counts as in vivo, cotton rat. From the text: 1. 50 to 100 g cotton rats of either sex inoculated i.n. with RS A2 (pool 8-28-92) on day 0.
2. On day +1 animals were given placebo or PALA as follows:
3. All animals killed on day +4 and their lungs tested for RSV levels.

Where [2] appears, read: PALA 50, rifampicin 10 or both, mg/kg/day i.v.
Setting [3] is: day 10, PALA 50, rifampicin 10 mg/kg/d or both.

Where “and” joins values, the source holds several entries; their conditions need not be identical. Equal values may be shown once. Read-outs that look alike come from different tables or passages of the source.

On to `O=CC[C@@H](O)[C@H](O)[C@H](O)CO` [2-dGlc, 2-deoxy-D-glucose], for which the effect against flaviviruses entry in the series on flaviviruses is “no effect”.

On to `Nc1nc2c(ncn2COCCO)c(=O)[nH]1` [Acyclovir, reference compound], for which the “effect on rash / viremia” value with simian varicella virus (PALA 20, Acyclovir 10 or both, mg/kg/day i.v.) is reported as “no effect in moderating viremia”. For the same compound, the “thrombocytopenia on day 11” value in the series with simian varicella virus (PALA 50 or Acyclovir 10 mg/kg/day) was “two monkeys”. In addition, the “Viremia, Mean PFU” value in the series with simian varicella virus (day 7, PALA 20, Acyclovir 10 or both) was > 1000 PFU and 504 PFU; in the series on simian varicella virus (day 11, PALA 20, Acyclovir 10 or both), 0 PFU.

Regarding `O=C(O)CP(=O)(O)O` [PAA, phosphonoacetic acid, reference compound], in the series on herpesvirus, the “antiherpesvirus activity” value was “selective antiherpesvirus agent”.

For the compound `NC(=O)c1ncn([C@@H]2O[C@H](CO)[C@@H](O)[C@H]2O)n1` [RIBAVIRIN, reference compound], the RSV lung titre in series [1] (ribavirin 40 mg/kg, alone or + PALA 3 mg/kg, individual animal) is 3.4 LOG10 and 2.9 LOG10 and 3.5 LOG10. In series [1] (ribavirin 40 mg/kg/day, alone or + PALA 3), the “RSV lung titre, mean (SD)” value is 3.3 (0.3) LOG10 /G Lung.

In the case of `CO[C@H]1/C=C/O[C@@]2(C)Oc3c(C)c(O)c4c(O)c(c(/C=N/N5CCN(C)CC5)c(O)c4c3C2=O)NC(=O)/C(C)=C\C=C\[C@H](C)[C@H](O)[C@@H](C)[C@@H](O)[C@@H](C)[C@H](OC(C)=O)[C@@H]1C` [Rifampicin, reference compound], the “lesion development” value in the series on vaccinia virus (setting [2]) is on record as “appreciable skin lesions”. In the series on vaccinia virus (setting [2]), the “virus titers in skin” value is recorded as “Higher titers”. Further, the Weight with vaccinia virus (day 0, PALA 50, rifampicin 10 mg/kg/d or both) is 5.2 kg and 2.6 kg and 4.2 kg; in the series on vaccinia virus (setting [3]) it was 4.6 kg and 2.4 kg and 3.8 kg; in the series on vaccinia virus (day 14, PALA 50, rifampicin 10 mg/kg/d or both) it was 4.6 kg and 2.4 kg and 3.8 kg; in the series on vaccinia virus (day 21, PALA 50, rifampicin 10 mg/kg/d or both) it was 4.8 kg and 2.6 kg and 4.0 kg. The “Vaccinia Lesion Score, group mean” value with vaccinia virus (day 3, PALA 50, rifampicin 10 mg/kg/d or both) amounted to 0.4; with vaccinia virus (day 6, PALA 50, rifampicin 10 mg/kg/d or both), 1.2; in the series with vaccinia virus (day 7, PALA 50, rifampicin 10 mg/kg/d or both), 1.7; in the series with vaccinia virus (day 8, PALA 50, rifampicin 10 mg/kg/d or both), 1.3; with vaccinia virus (day 9, PALA 50, rifampicin 10 mg/kg/d or both), 1.2; in the series on vaccinia virus (setting [3]), 1.6. For the same compound, the “Vaccinia Lesion Score, group mean” value with vaccinia virus (day 13, PALA 50, rifampicin 10 mg/kg/d or both) was determined as 0.9. In addition, the “Vaccinia Lesion Score” value with vaccinia virus (day 6, PALA 50, rifampicin 10 mg/kg/d or both, per monkey) is 1.6 and 0.7 and 1.4. Also, the signs of toxicity result in the series with vaccinia virus (except one monkey at PALA 125 mg/kg bolus) is listed as “No appreciable signs of toxicity”. For the same compound, in the series on vaccinia virus (head prints day 6, PALA 50, rifampicin 10 mg/kg/d or both), the “Titer of vaccinia virus in skin biopsy” value was 1.5 × 10^7 PFU/ml and 1.2 × 10^5 PFU/ml and 1.1 × 10^5 PFU/ml.
